Values quoted from earlier work as cited in patent US20250255801A1, “Novel Parenteral Composition Comprising Linagliptin or its Salts” (Zenvision Pharma LLP, priority 2021, published 2025).
≈ marks a conversion by molar mass, not a printed value.

Tests used:
[1] = high solubility and low permeability
[2] = not given; remark: listed apart in the source

- Solubility in acetone (acetone): ca. 1 mg/mL
- Solubility in ethanol (ethanol): ca. 10 mg/mL
- Solubility in isopropanol (isopropanol): < 1000 µg/mL
- Solubility in methanol (methanol): ca. 60 mg/mL
- Solubility in water (water): 900 µg/mL (≈ 1900 µM)
- BCS class [1]: Class III
- oral systemic bioavailability [2]: approximately 30%
Compound: CC#CCn1c(N2CCC[C@@H](N)C2)nc2c1c(=O)n(Cc1nc(C)c3ccccc3n1)c(=O)n2C [Linagliptin, 1H-Purine-2,6-dione, 8-[(3R)-3-amino-1-piperidinyl]-7-(2-butyn-1-yl)-3,7-dihydro-3-methyl-1-[(4-methyl-2 quinazolinyl)methyl]-]
